One series addresses human SLC-1 (Homo sapiens, UniProt Q99705). Description: MCH receptor antagonistic activity (inhibitory activity, Experimental Example 1). Format: biochemical.
A further series concerns the target rat SLC-1 (Rattus norvegicus, UniProt P97639). The description is as above. The class given is biochemical.

We go through 20 compounds from patent publication US8383647B2, “Quinoline derivative” (Takeda Pharmaceutical Company Limited, priority 2009, dated 2013).

Where a name gives a salt, the structure may show the parent alone.

Sequence of human SLC-1 (Q99705 whole entry): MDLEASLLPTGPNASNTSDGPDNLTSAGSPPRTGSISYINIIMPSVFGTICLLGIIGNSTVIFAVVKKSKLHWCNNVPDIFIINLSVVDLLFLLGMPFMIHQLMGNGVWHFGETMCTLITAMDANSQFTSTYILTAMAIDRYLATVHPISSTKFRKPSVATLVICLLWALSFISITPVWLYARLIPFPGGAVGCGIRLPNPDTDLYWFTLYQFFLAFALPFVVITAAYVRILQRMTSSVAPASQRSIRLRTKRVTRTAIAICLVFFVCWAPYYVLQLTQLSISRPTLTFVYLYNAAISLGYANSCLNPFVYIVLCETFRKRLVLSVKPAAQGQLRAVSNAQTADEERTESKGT
Sequence of rat SLC-1 (P97639 whole entry): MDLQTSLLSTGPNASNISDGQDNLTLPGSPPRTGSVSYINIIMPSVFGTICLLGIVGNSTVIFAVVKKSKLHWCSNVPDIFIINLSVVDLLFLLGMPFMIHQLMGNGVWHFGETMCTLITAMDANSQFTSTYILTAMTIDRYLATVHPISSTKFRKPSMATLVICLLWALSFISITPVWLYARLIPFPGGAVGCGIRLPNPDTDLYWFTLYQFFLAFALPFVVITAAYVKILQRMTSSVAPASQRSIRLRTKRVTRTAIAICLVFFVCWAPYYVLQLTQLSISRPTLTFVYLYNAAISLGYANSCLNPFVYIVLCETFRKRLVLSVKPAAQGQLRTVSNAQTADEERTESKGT

Compound `COC(C)(C)CNCc1cnc2c(C)c(NC(=O)c3ccc(OC[C@@H]4CCCO4)cc3)ccc2c1` (as salt: hydrochloride) [Example 30, N-(3-{[(2-methoxy-2-methylpropyl)amino]methyl}-8-methylquinolin-7-yl)-4-[(2S)-tetrahydrofuran-2-ylmethoxy]benzamide dihydrochloride] came in with a melting point of 235 to 237 °C.
`Cc1c(NC(=O)c2ccc(OC[C@@H]3CCCO3)cc2)ccc2cc(CNCC3(O)CCCCC3)cnc12` (as salt: hydrochloride) [Example 41, N-[3-({[(1-hydroxycyclohexyl)methyl]amino}methyl)-8-methylquinolin-7-yl]-4-[(2S)-tetrahydrofuran-2-ylmethoxy]benzamide dihydrochloride] gave a melting point of 242 to 244 °C.
For `Cc1c(NC(=O)c2ccc(OCC3CCOC3)cc2)ccc2cc(CNCC(C)C)cnc12` (single isomer, unassigned) [Example 61, N-(8-methyl-3-{[(2-methylpropyl)amino]methyl}quinolin-7-yl)-4-(tetrahydrofuran-3-ylmethoxy)benzamide], the figures for the IC50 on human SLC-1 and against rat SLC-1 were 2.2 nM and 2.1 nM, respectively.
Regarding `Cc1c(NC(=O)c2ccc(OCC3CCCO3)cc2)ccc2cc(CNCC(C)(C)O)cnc12` (stereo not shown) [Example 1, N-(3-{[(2-hydroxy-2-methylpropyl)amino]methyl}-8-methylquinolin-7-yl)-4-(tetrahydrofuran-2-ylmethoxy)benzamide], the melting point is 138 °C.
In turn, `Cc1c(NC(=O)c2ccc(OCC3CCCO3)cc2)ccc2cc(CN[C@H]3CCCC[C@@H]3O)cnc12` (stereo partly drawn) [Example 3, N-[3-({[(1S,2S)-2-hydroxycyclohexyl]amino}methyl)-8-methylquinolin-7-yl]-4-(tetrahydrofuran-2-ylmethoxy)benzamide] showed a melting point of 197 °C.
`Cc1c(NC(=O)c2ccc(OCC3CCOC3)cc2)ccc2cc(CNC(C)C)cnc12` (stereo not shown) [Example 7, N-(8-methyl-3-{[(1-methylethyl)amino]methyl}quinolin-7-yl)-4-(tetrahydrofuran-3-ylmethoxy)benzamide] gave a melting point of 106 °C.
Regarding `Cc1c(NC(=O)c2ccc(OCC3CCOC3)cc2)ccc2cc(CNC3CCCC3)cnc12` (stereo not shown) [Example 16, N-{3-[(cyclopentylamino)methyl]-8-methylquinolin-7-yl}-4-(tetrahydrofuran-3-ylmethoxy)benzamide], the melting point fell in the range of 148 to 149 °C. For the same compound, the IC50 against human SLC-1 came to 2.8 nM. Half-maximal inhibition against rat SLC-1 (IC50) was put at 3.2 nM.
In turn, `Cc1c(NC(=O)c2ccc(OC[C@H]3CCCO3)cc2)ccc2cc(CNCC(C)(C)C)cnc12` [Example 25, N-(3-{[(2,2-dimethylpropyl)amino]methyl}-8-methylquinolin-7-yl)-4-[(2R)-tetrahydrofuran-2-ylmethoxy]benzamide] yielded a melting point of 110 to 111 °C. Moreover, half-maximal inhibition on human SLC-1 (IC50) required 3.4 nM. Moreover, the IC50 against rat SLC-1 came out at 3.5 nM.
Turning to `Cc1c(NC(=O)c2ccc(OC[C@@H]3CCCO3)cc2)ccc2cc(CNC[C@H]3CCCO3)cnc12` [Example 27, N-[8-methyl-3-({[(2R)-tetrahydrofuran-2-ylmethyl]amino}methyl)quinolin-7-yl]-4-[(2S)-tetrahydrofuran-2-ylmethoxy]benzamide], the melting point lay within 92 to 94 °C. Besides, on human SLC-1, the IC50 stood at 6.3 nM. At rat SLC-1, this compound gave a half-inhibitory concentration (IC50) of 7.8 nM.
Taken in the same sequence, the figures for `Cc1c(NC(=O)c2ccc(OC[C@@H]3CCCO3)cc2)ccc2cc(CNC[C@@H]3CCCO3)cnc12` [Example 29, N-[8-methyl-3-({[(2S)-tetrahydrofuran-2-ylmethyl]amino}methyl)quinolin-7-yl]-4-[(2S)-tetrahydrofuran-2-ylmethoxy]benzamide] were 93 to 94 °C, 3.2 nM and 4.6 nM.
`COC(C)(C)CNCc1cnc2c(C)c(NC(=O)c3ccc(OC[C@@H]4CCCO4)cc3)ccc2c1` [Example 30, N-(3-{[(2-methoxy-2-methylpropyl)amino]methyl}-8-methylquinolin-7-yl)-4-[(2S)-tetrahydrofuran-2-ylmethoxy]benzamide dihydrochloride]: the IC50 against human SLC-1 came to 8.4 nM; against rat SLC-1, 11 nM.
As to `Cc1c(NC(=O)c2ccc(OC[C@@H]3CCCO3)cc2)ccc2cc(CNCC3CCOCC3)cnc12` [Example 32, N-(8-methyl-3-{[(tetrahydro-2H-pyran-4-ylmethyl)amino]methyl}quinolin-7-yl)-4-[(2S)-tetrahydrofuran-2-ylmethoxy]benzamide], the melting point was 92 to 94 °C. Further, on human SLC-1, the IC50 amounted to 6 nM. This compound also gave a 50% inhibitory concentration (IC50) against rat SLC-1 of 6.4 nM.
For the compound `Cc1c(NC(=O)c2ccc(OC[C@@H]3CCCO3)cc2)ccc2cc(CNCC3(O)CCCCC3)cnc12` [Example 41, N-[3-({[(1-hydroxycyclohexyl)methyl]amino}methyl)-8-methylquinolin-7-yl]-4-[(2S)-tetrahydrofuran-2-ylmethoxy]benzamide dihydrochloride], the 50% inhibitory concentration (IC50) against human SLC-1 turned out to be 1.5 nM; against rat SLC-1 it was 1.6 nM.
As to `Cc1c(NC(=O)c2ccc(OC[C@H]3CCCO3)cc2)ccc2cc(CN[C@H]3CC[C@](C)(O)CC3)cnc12` [Example 51, N-(3-{[(trans-4-hydroxy-4-methylcyclohexyl)amino]methyl}-8-methylquinolin-7-yl)-4-[(2R)-tetrahydrofuran-2-ylmethoxy]benzamide], the 50% inhibitory concentration (IC50) on human SLC-1 is 4.1 nM; against rat SLC-1 it was 5.3 nM.
The compound `Cc1c(NC(=O)c2ccc(OC[C@H]3CCCO3)cc2)ccc2cc(CN[C@H]3CC[C@@](C)(O)CC3)cnc12` [Example 53, N-(3-{[(cis-4-hydroxy-4-methylcyclohexyl)amino]methyl}-8-methylquinolin-7-yl)-4-[(2R)-tetrahydrofuran-2-ylmethoxy]benzamide] yielded a melting point of 163 to 164 °C.
The compound `Cc1c(NC(=O)c2ccc(OCC3CCOC3)cc2)ccc2cc(CNCC(C)C)cnc12` (stereo not shown) [Example 59, N-(8-methyl-3-{[(2-methylpropyl)amino]methyl}quinolin-7-yl)-4-(tetrahydrofuran-3-ylmethoxy)benzamide] registered a melting point of 132 °C.
In turn, `Cc1c(NC(=O)c2ccc(OCC3CCOC3)cc2)ccc2cc(CNCC(C)C)cnc12` (stereo not shown) [Example 60, N-(8-methyl-3-{[(2-methylpropyl)amino]methyl}quinolin-7-yl)-4-(tetrahydrofuran-3-ylmethoxy)benzamide] returned a melting point of 130 to 131 °C.
`Cc1c(NC(=O)c2ccc(OCC3CCOC3)cc2)ccc2cc(CN[C@H]3CC[C@](C)(O)CC3)cnc12` (stereo partly drawn) [Example 64, N-(3-{[(trans-4-hydroxy-4-methylcyclohexyl)amino]methyl}-8-methylquinolin-7-yl)-4-(tetrahydrofuran-3-ylmethoxy)benzamide] came in with a melting point of 98 to 101 °C.
Take `COC(C)(C)CNCc1cnc2c(C)c(NC(=O)c3ccc(OCC4CCOC4)cc3)ccc2c1` (stereo not shown) [Example 65, N-(3-{[(2-methoxy-2-methylpropyl)amino]methyl}-8-methylquinolin-7-yl)-4-(tetrahydrofuran-3-ylmethoxy)benzamide]: the melting point came to 137 °C.
As to `Cc1c(NC(=O)c2ccc(OCC3CCOC3)cc2)ccc2cc(CN3CCC(C)(O)CC3)cnc12` (stereo not shown) [Example 66, N-{3-[(4-hydroxy-4-methylpiperidin-1-yl)methyl]-8-methylquinolin-7-yl}-4-(tetrahydrofuran-3-ylmethoxy)benzamide], the melting point lay within 160 to 162 °C.
